In PMC3582512, “Application of a Novel Microtitre Plate-Based Assay for the Discovery of New Inhibitors of DNA Gyrase and DNA Topoisomerase VI” (PLoS ONE, 2013):
Entries after “also recorded” stand apart in the source; their conditions may differ.

Assays:
E. coli DNA gyrase [1] = target: T1, E. coli DNA gyrase (Escherichia coli, UniProt P0AES4+P0AES6); assay: DNA triplex-based microtitre plate screen, gyrase supercoiling; assay type: biochemical; conditions: 25 µM compound, duplicate
T1 construct: made in house
T1 sequence (P0AES4 whole entry, one chain of several): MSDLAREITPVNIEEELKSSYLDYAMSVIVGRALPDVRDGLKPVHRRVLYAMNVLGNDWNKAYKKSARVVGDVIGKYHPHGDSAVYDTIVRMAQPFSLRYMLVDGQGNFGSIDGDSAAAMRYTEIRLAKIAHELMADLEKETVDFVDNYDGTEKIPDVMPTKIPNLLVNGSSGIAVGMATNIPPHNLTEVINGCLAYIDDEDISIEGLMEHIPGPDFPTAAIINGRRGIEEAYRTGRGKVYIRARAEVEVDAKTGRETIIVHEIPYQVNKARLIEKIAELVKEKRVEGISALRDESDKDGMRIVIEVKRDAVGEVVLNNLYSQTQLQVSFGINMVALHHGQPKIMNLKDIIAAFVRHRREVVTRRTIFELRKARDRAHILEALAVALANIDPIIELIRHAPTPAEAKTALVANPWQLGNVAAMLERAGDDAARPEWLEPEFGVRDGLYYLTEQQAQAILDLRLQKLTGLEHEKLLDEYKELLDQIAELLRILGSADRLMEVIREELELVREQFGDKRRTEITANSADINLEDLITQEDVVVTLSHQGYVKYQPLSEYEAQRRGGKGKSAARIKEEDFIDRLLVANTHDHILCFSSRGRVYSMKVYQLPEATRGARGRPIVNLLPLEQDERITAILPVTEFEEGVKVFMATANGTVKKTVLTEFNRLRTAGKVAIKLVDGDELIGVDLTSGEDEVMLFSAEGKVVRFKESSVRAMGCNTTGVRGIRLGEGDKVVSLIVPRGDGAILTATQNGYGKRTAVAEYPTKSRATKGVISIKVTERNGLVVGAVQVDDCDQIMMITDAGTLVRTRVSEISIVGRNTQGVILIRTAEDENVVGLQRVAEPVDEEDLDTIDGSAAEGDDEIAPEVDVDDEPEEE
Experimental: The triplex-based assay was conducted as previously described [45]–[47]. In brief, oligonucleotide TFO1 was immobilised onto a streptavidin-coated microtitre plate. Excess oligonucleotide was removed by washing with buffer. […] The reaction was stopped by the addition of a low pH, high salt buffer and triplex formation was allowed to occur for 30 min at room temperature. The DNA retained on the plate was stained with SYBR Gold (Sigma) dye and the fluorescence readings for each well read in a SpectraMax Gemini fluorimeter (Molecular Devices).
Twelve plates were screened in duplicate over three days manually using a multichannel pipette as previously described. […] Each plate contained 16 control reactions: eight positive for enzyme activity, which contained enzyme but no library compounds, and eight negative for enzyme activity, which lacked both enzyme and library compounds. All controls were carried out with 5% DMSO.

E. coli DNA gyrase [2] = target: T1, E. coli DNA gyrase; conditions: not studied further in this paper; cited from earlier work
E. coli MG1655 = assay: Bacterial growth inhibition; assay type: cell-based, Escherichia coli; conditions: liquid and solid media
Experimental: (§1) For E. coli work, 10 mL cultures of E. coli MG1655 or NR698 were grown overnight at 37°C in LB medium. A 100 µL sample was then added to 10 mL of LB medium containing the desired concentration of compound. The culture was then allowed to grow at 37°C for 5 h and its OD600 measured every hour. For M. smegmatis, a 50 mL culture was grown for 48 h in Middlebrooks 7H11 medium at 37°C. A 100 µL sample was then added to 10 mL of Middlebrooks 7H11 containing the desired concentration of compound. The culture was then allowed to grow at 37°C for 9 h and its OD600 measured every three hours. For colony counting experiments M. smegmatis was grown for 48 h in 50 mL of Middlebrooks 7H9 medium at 37°C. A 100 µL sample was then added to 10 mL of Middlebrooks 7H9 medium containing the desired concentration test compound and allowed to grow at 37°C overnight. After 16 h, 20 µL samples were taken from these cultures and diluted 1 in 10,000 with Middlebrooks 7H9 medium. Petri dishes containing Middlebrooks 7H11 agar were prepared and 100 µL of each diluted culture was spread out. The plates were subsequently stored at 4°C. This was repeated every three hours for six hours, after which the plates were transferred to 37°C for 48 h. The numbers of colonies for each time point were counted manually.

M. mazei topo VI [3] = target: T2, M. mazei topo VI (Methanosarcina mazei, UniProt Q8PUB7+Q8PUB8); assay: Agarose gel-based DNA relaxation assay; assay type: biochemical; conditions: for IC50: gel relaxation assay, 1 unit (50 nM) topo VI, read-out: Approx. IC50 against M. mazei topo VI; for Mechanism (Topo VI): summary of mechanistic tests with M. mazei and S. shibatae topo VI
T2 construct: His tag; made in house
T2 sequence (Q8PUB8 whole entry): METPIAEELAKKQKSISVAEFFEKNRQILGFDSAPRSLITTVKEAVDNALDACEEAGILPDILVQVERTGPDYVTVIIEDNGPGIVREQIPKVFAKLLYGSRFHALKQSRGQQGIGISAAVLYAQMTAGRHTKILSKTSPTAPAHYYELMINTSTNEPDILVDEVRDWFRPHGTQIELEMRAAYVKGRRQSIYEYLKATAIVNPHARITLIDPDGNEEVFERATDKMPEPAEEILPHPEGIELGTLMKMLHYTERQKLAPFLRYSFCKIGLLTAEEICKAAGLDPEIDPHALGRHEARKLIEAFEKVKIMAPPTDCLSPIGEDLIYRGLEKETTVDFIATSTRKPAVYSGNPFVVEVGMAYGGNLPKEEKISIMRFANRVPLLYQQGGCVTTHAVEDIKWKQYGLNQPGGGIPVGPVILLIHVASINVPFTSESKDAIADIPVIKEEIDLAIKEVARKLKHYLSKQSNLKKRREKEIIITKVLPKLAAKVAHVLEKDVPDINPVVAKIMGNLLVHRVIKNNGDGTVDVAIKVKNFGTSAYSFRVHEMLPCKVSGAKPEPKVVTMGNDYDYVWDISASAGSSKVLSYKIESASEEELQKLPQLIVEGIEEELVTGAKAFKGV
T2 sequence (Q8PUB7 whole entry): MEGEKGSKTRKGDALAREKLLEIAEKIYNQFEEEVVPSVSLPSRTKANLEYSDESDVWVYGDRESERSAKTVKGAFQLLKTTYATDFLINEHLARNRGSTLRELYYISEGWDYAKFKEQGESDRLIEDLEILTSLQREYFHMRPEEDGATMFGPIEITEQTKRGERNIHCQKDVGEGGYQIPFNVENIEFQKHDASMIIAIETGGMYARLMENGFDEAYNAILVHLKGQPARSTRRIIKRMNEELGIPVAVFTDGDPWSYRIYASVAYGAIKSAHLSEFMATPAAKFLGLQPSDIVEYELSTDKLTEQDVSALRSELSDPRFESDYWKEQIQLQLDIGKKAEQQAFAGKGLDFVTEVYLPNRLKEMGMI
Experimental: (§2) The agarose gel-based assay was conducted as previously described, [44], [62]. In brief, topoisomerases were incubated with 0.5 µg of plasmid and the desired concentration of compound for 30 min at 37°C (for DNA gyrase and M. mazei topo VI) or 5 min at 75°C (for S. shibatae topo VI), in a total volume of 30 µL. […] Reactions were stopped by the addition of a loading buffer containing EDTA and the drug extracted by vortexing with either chloroform or aqueous butanol as required. In the case of M. mazei topo VI, it was necessary to include SDS in the loading buffer, at a final concentration of 1%. Samples were loaded onto a 1% agarose gel, run for the appropriate length of time and stained with ethidium bromide before visualisation on a UV transilluminator.

S. shibatae topo VI = target: T3, S. shibatae topo VI (Saccharolobus shibatae, UniProt O05207+O05208); assay: Protection from ADPNP-induced, S. shibatae topo VI-mediated DNA cleavage; assay type: biochemical, Sulfolobus shibatae
T3 construct: gift from Danielle Gadelle (University of Paris XI, Orsay)
T3 sequence (O05207 whole entry): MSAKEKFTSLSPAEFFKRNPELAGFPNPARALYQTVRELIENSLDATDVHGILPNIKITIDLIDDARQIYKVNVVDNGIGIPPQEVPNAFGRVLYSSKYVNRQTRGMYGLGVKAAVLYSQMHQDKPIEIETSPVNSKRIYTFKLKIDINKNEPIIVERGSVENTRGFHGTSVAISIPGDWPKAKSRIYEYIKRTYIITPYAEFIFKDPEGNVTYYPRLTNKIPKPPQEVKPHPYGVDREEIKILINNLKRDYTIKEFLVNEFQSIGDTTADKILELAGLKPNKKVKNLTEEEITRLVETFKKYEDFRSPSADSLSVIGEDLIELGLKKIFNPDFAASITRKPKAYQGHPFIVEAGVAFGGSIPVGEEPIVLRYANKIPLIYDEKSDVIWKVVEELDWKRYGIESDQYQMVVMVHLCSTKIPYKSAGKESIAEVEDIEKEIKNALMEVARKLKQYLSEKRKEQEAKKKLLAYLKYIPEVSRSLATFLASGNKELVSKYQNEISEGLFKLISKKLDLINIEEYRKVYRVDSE
T3 sequence (O05208 whole entry): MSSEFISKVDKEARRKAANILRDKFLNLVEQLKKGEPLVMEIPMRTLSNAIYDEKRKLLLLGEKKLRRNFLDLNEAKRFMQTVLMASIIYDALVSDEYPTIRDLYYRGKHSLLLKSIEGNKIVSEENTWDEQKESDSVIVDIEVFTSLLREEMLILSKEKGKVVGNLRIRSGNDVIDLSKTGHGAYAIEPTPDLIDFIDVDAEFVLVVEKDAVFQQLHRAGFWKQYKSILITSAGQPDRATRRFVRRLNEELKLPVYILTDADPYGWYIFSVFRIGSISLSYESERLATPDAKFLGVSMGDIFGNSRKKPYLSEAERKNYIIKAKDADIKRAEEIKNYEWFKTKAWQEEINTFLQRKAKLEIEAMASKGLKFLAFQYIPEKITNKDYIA
Experimental: (§3) Assays to detect the stabilisation of cleavage complexes were identical to the protocol for topoisomerase activity detailed above, except as follows. Cleavage experiments with DNA gyrase were carried out in the absence of ATP and spermidine and 30 µL reactions were stopped with 3 µL 10% SDS and incubated with 3 µL 1 mg/mL proteinase K solution at 37°C for 1 h. For cleavage complex protection assays with suramin, the reaction buffer was modified to contain 4 mM CaCl2 rather than MgCl2.

[4] = target: T4, M. mazei DNA topoisomerase VI (Methanosarcina mazei, UniProt Q8PUB7+Q8PUB8); assay: DNA triplex-based microtitre plate screen, topo VI relaxation; assay type: biochemical; conditions: 25 µM compound, duplicate
T4 construct: His tag; made in house
T4 sequence (Q8PUB8 whole entry): as the sequence (Q8PUB8 whole entry) above
T4 sequence (Q8PUB7 whole entry): as the sequence (Q8PUB7 whole entry) above
Experimental: The triplex-based assay was conducted as previously described [45]–[47]. In brief, oligonucleotide TFO1 was immobilised onto a streptavidin-coated microtitre plate. Excess oligonucleotide was removed by washing with buffer. Topoisomerase reactions were carried out in a 30 μL reaction volume containing 1–2 units topoisomerase and 1 μg relaxed or negatively supercoiled pNO1 under the published reaction conditions, [47]; gyrase supercoiling: 35 mM Tris•HCl (pH 7.5), 24 mM KCl, 4 mM MgCl2, 2 mM DTT, 1.8 mM spermidine, 1 mM ATP, 6.5% (w/v) glycerol, 0.1 mg/mL bovine serum albumin; topo VI relaxation: 20 mM bis-tris propane (pH 6.5), 100 mM potassium glutamate, 10 mM MgCl2, 1 mM DTT, 1 mM ATP. […] The DNA retained on the plate was stained with SYBR Gold (Sigma) dye and the fluorescence readings for each well read in a SpectraMax Gemini fluorimeter (Molecular Devices).
Twelve plates were screened in duplicate over three days manually using a multichannel pipette as previously described. […] Once the data had been collected from the screen, the fluorescence signals for the duplicates were averaged and converted into percentage inhibition using the positive and negative controls. […] To analyse the degree of separation between a negative and positive result the Z' factor [51] for the assay was calculated from the data for the control reactions (Equation 1). […]

E. coli DNA gyrase [5] = target: T1, E. coli DNA gyrase; assay: Gel-based gyrase-mediated DNA cleavage assay; assay type: biochemical; conditions: absence of ATP
Experimental: as §3

E. coli DNA gyrase [6] = target: T1, E. coli DNA gyrase; assay: Agarose gel-based DNA supercoiling assay; assay type: biochemical
Experimental: as §2

M. smegmatis mc^2155 = assay: Bacterial growth inhibition and colony counting; assay type: cell-based, Mycobacterium smegmatis
Experimental: as §1

E. coli strain NR698 = assay: Bacterial growth inhibition, membrane-permeable strain; assay type: cell-based, Escherichia coli; conditions: liquid and solid media
Experimental: as §1

M. mazei topo VI [7] = target: T2, M. mazei topo VI; assay: Native gel shift assay, topo VI binding to 147 bp DNA fragment
Experimental: In order to test the effects of hit compounds upon DNA binding by topoisomerases, samples of enzyme and drug were prepared under the following conditions in a final volume of 10 μL: 1 nM 147 bp linear fragment of DNA derived from pBR322, [82] 50 mM Tris•HCl (pH 7.5), 100 mM KCl, 5 mM MgCl2, 2 mM DTT, 10% w/v glycerol. Samples were incubated for 30 min at room temperature before being run on a 5% (29:1) Protogel acrylamide (National Diagnostics) gel in 90 mM Tris·Borate, 5 mM MgCl2 at 150 V for 45 min. The DNA was stained by soaking in 2 µg/mL ethidium bromide for 10 min and visualised under UV light.

CCn1nc(C(=O)O)c(=O)c2cc3c(cc21)OCO3 [cinoxacin]
Outcome in gyrase screen (hit threshold 25% inhibition) (E. coli DNA gyrase [1]): missed by the screen

O=C(O)c1cn(C2CC2)c2cc(N3CCNCC3)c(F)cc2c1=O [Ciprofloxacin]
Mechanism (DNA gyrase), already characterised inhibitors (E. coli DNA gyrase [2]): Fluoroquinolone cleavage-complex stabiliser

CCn1cc(C(=O)O)c(=O)c2cc(F)c(N3CCNC(C)C3)c(F)c21 (stereo not drawn) [Lomefloxacin]
Mechanism (DNA gyrase), already characterised inhibitors (E. coli DNA gyrase [2]): Fluoroquinolone cleavage-complex stabiliser

O=C(O)c1cn(-c2ccc(F)cc2)c2cc(N3CCNCC3)c(F)cc2c1=O [Surafloxacin]
Mechanism (DNA gyrase), already characterised inhibitors (E. coli DNA gyrase [2]): Fluoroquinolone cleavage-complex stabiliser

O=C1c2c(O)ccc(O)c2C(=O)c2c(NCCNCCO)ccc(NCCNCCO)c21 [Mitoxantrone]
Inhibition of growth / antimicrobial activity (E. coli MG1655): no inhibition of growth
Inhibition in gel-based relaxation assay (hit validation) (M. mazei topo VI [3]): found to inhibit M. mazei topo VI
IC50 (M. mazei topo VI [3]): 2 µM
Mechanism (Topo VI) (M. mazei topo VI [3]): Prevents cleavage
Prevention of ADPNP-induced DNA cleavage by S. shibatae topo VI (S. shibatae topo VI): appeared to prevent ADPNP-induced cleavage
Outcome in topo VI screen (hit threshold 25% inhibition) [4]: missed during the initial screen
Induction of gyrase-mediated DNA cleavage (E. coli DNA gyrase [5]; 10 µM): strongly induced DNA cleavage
Ability to stabilise the gyrase cleavage complex (E. coli DNA gyrase [5]; 100 µM): reduced
Inhibition in gel-based supercoiling assay (hit validation) (E. coli DNA gyrase [6]): displayed inhibition
IC50 (E. coli DNA gyrase [6]; gel supercoiling assay, 1 unit of gyrase (12 nM), read-out: Approx. IC50 against E. coli DNA gyrase): 12 µM
Mechanism (DNA gyrase) (E. coli DNA gyrase [6]; summary of this study's mechanistic tests): Cleavage-complex stabiliser
Colony count relative to absence of drug (M. smegmatis mc^2155; 65 μM, grown in liquid media then plated onto drug-free agar): 2%
Inhibition of growth (M. smegmatis mc^2155; liquid broth / liquid cultures): strongly inhibited the growth; also recorded: found to inhibit the growth
Inhibition of growth / antimicrobial activity (E. coli strain NR698): no inhibition of growth

CCn1cc(C(=O)O)c(=O)c2cc(F)c(N3CCNCC3)nc21 [enoxacin]
Outcome in gyrase screen (hit threshold 25% inhibition) (E. coli DNA gyrase [1]): missed by the screen

C[n+]1c2cc(N)ccc2cc2ccc(N)cc21 [Acriflavinium]
Mechanism (DNA gyrase), already characterised inhibitors (E. coli DNA gyrase [2]): ATPase inhibitor
Outcome in gyrase screen (hit threshold 25% inhibition) (E. coli DNA gyrase [1]): scored over the hit threshold

CC1COc2c(N3CCN(C)CC3)c(F)cc3c(=O)c(C(=O)O)cn1c23 (stereo not drawn) [Ofloxacin]
Mechanism (DNA gyrase), already characterised inhibitors (E. coli DNA gyrase [2]): Fluoroquinolone cleavage-complex stabiliser

CCN(CC)CCCC(C)Nc1c2ccc(Cl)cc2nc2ccc(OC)cc12 (stereo not drawn) [Quinacrine]
Inhibition in gel-based relaxation assay (hit validation) (M. mazei topo VI [3]): validated as hits
IC50 (M. mazei topo VI [3]): 8 µM
Mechanism (Topo VI) (M. mazei topo VI [3]): Prevents DNA cleavage
Prevention of ADPNP-induced DNA cleavage by S. shibatae topo VI (S. shibatae topo VI): appeared to prevent ADPNP-induced cleavage

Nc1c2ccccc2nc2ccccc12 [9-Aminoacridne, 9-aminoacridine]
Inhibition in gel-based relaxation assay (hit validation) (M. mazei topo VI [3]): validated as hits
IC50 (M. mazei topo VI [3]): 6 µM
Mechanism (Topo VI) (M. mazei topo VI [3]): Prevents DNA cleavage
Prevention of ADPNP-induced DNA cleavage by S. shibatae topo VI (S. shibatae topo VI): appeared to prevent ADPNP-induced cleavage

CCn1cc(C(=O)O)c(=O)c2ccc(C)nc21 [nalidixic acid]
Outcome in gyrase screen (hit threshold 25% inhibition) (E. coli DNA gyrase [1]): missed by the screen

CCn1cc(C(=O)O)c(=O)c2cc(F)c(N3CCN(C)CC3)cc21.CS(=O)(=O)O [Perfloxacine Mesylate]
Mechanism (DNA gyrase), already characterised inhibitors (E. coli DNA gyrase [2]): Fluoroquinolone cleavage-complex stabiliser

CCn1cc(C(=O)O)c(=O)c2cc(F)c(N3CCNCC3)cc21 [Norfloxacin]
Mechanism (DNA gyrase), already characterised inhibitors (E. coli DNA gyrase [2]): Fluoroquinolone cleavage-complex stabiliser

COc1cc(NS(C)(=O)=O)ccc1Nc1c2ccccc2nc2ccccc12 [m-Amsacrine]
Inhibition in gel-based relaxation assay (hit validation) (M. mazei topo VI [3]): validated as hits
IC50 (M. mazei topo VI [3]): 30 µM
Mechanism (Topo VI) (M. mazei topo VI [3]): Prevents DNA cleavage

O=C1c2ccccc2C(=O)c2c(O)c(O)cc(O)c21 [Purpurin]
Effect on binding of M. mazei topo VI to DNA (M. mazei topo VI [7]): appeared to prevent the binding of topo VI to DNA; also recorded: appeared to prevent G-segment binding
Inhibition in gel-based relaxation assay (hit validation) (M. mazei topo VI [3]): validated as hits
IC50 (M. mazei topo VI [3]): 40 µM
Mechanism (Topo VI) (M. mazei topo VI [3]): Blocks DNA binding
Prevention of ADPNP-induced DNA cleavage by S. shibatae topo VI (S. shibatae topo VI): marked ability to reduce the amount of cleavage

COc1c(N2CCNC(C)C2)c(F)cc2c(=O)c(C(=O)O)cn(C3CC3)c12 (stereo not drawn) [Gatifloxacin]
Mechanism (DNA gyrase), already characterised inhibitors (E. coli DNA gyrase [2]): Fluoroquinolone cleavage-complex stabiliser

CCn1cc(C(=O)O)c(=O)c2cc3c(cc21)OCO3 [oxolinic acid]
Outcome in gyrase screen (hit threshold 25% inhibition) (E. coli DNA gyrase [1]): missed by the screen

C[C@H]1COc2c(N3CCN(C)CC3)c(F)cc3c(=O)c(C(=O)O)cn1c23 [Levofloxacin]
Mechanism (DNA gyrase), already characterised inhibitors (E. coli DNA gyrase [2]): Fluoroquinolone cleavage-complex stabiliser

COc1c(N2C[C@@H]3CCCN[C@@H]3C2)c(F)cc2c(=O)c(C(=O)O)cn(C3CC3)c12 [Moxifloxacin]
Mechanism (DNA gyrase), already characterised inhibitors (E. coli DNA gyrase [2]): Fluoroquinolone cleavage-complex stabiliser
